This test concerns the target T1, FRα (Homo sapiens, UniProt P15328).
T1 construct: KB (FRα-expressing human cervical carcinoma with HeLa markers); endogenous in cells; host or cells: KB cells (human cervical carcinoma with HeLa markers)
The test can be described thus: 3H-EC17 cell-based radioligand binding, KB cells. To be noted: ^3H-EC17, KB cells, 2 h at 37°C, from molecules bound per cell. As to the method: Unless otherwise noted, all FR+ and FR-negative cancer cell lines were, respectively, maintained in RPMI-1640 medium (Gibco BRL) supplemented with 10% heat-inactivated fetal calf serum without (FFRPMI) or with (RPMI) 2.4 μM folic acid (FA). KB (FRα-expressing human cervical carcinoma with HeLa markers) and CHO-β (Chinese hamster ovary cells transfected with human FRβ) were used as the sources of FRα and FRβ for radioligand binding assays, respectively ([18]). MDA-MB-231 represents a FRα+ subclone of human TNBC cell line. For AML studies, the green fluorescent protein (GFP)-expressing isogenic pairs of FRβ-positive (THP1-FRβ) and FR-negative (THP1-FG12) cell lines were kindly provided by Dr. Manohar Ratnam (The University of Toledo, Toledo, OH). […]
The bispecific affinities of EC17 CAM were assessed using ^3H-EC17 in cell-based radioligand binding assays. […] The whole cell lysates were quantitated for the level of radioactivity and cellular protein content by standard Pierce BCA protein assay. The number of ^3H-EC17 molecules bound per cell was calculated to determine the dissociation constants (Kd) for FRα (KB) and FRβ (CHO-β), respectively. […] Afterwards, the cells were washed 4x with PBS, lysed with 0.1% Triton X-100 plus 0.1 N NaOH and counted in a scintillation counter. […]

In paper PMC6433934, “Preclinical Evaluation of Bispecific Adaptor Molecule Controlled Folate Receptor CAR-T Cell Therapy With Special Focus on Pediatric Malignancies” (Frontiers in Oncology, 2019) one finds Kd data, which are given here for one compound.

By Kd is commonly meant a measure of binding affinity in units of concentration. Lower therefore signals a tighter complex.

Each structure is given as a SMILES string.

T1 sequence (P15328 25-257): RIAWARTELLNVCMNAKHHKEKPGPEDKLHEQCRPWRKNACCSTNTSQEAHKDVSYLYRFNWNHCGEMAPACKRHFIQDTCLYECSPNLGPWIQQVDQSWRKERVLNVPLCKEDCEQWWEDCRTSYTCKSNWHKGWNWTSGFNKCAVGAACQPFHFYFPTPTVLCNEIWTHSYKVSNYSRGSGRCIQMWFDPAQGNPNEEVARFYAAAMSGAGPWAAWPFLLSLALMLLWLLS

Turning to `Nc1nc2ncc(CNc3ccc(C(=O)NC(CCC(=O)NCCNC(=S)Nc4ccc(-c5c6ccc(=O)cc-6oc6cc(O)ccc56)c(C(=O)O)c4)C(=O)O)cc3)nc2c(=O)[nH]1` (stereo not shown) [EC17, FA-(γ)-ethylenediamine-FITC], binding was characterised by a dissociation constant (Kd) of 1.7 nM.
